2 compounds from ChEMBL document CHEMBL3272133, “1-[4-(4-Chlorophenyl)-2-(2,6-dichlorophenylthio)-n-butyl]-1H-imidazole nitrate, a new potent antifungal agent” (J Med Chem, 1978) can be followed below.

One assay has as its system Trichophyton tonsurans. In words: Antifungal activity against Trichophyton tonsurans assessed as growth inhibition by agar dilution method. It counts as functional. A general note: Agar dilution tests growth on a series of plates holding different concentrations.
Assay [1] has as its system Candida albicans. In words: Antifungal activity against mixed infection of Candida albicans infected in mouse assessed as noninfected animals at 0.2% formulation administered vaginally bid for 4 days measured on day 7 relative to placebo. The format is functional.
Assay [2] relates to Candida albicans. In words: Antifungal activity against Candida albicans infected in mouse assessed as noninfected animals at 1% formulation in neat PEG 400 solution administered vaginally bid for 4 days measured 6 hrs post last dose relative to placebo. It counts as functional.
Assay [3] in a line: Antifungal activity against Trichophyton concentricum assessed as growth inhibition by agar dilution method. It counts as functional.
Assay [4] has as its system Staphylococcus aureus. In words: Antibacterial activity against Staphylococcus aureus No. 14154 assessed as growth inhibition by broth microdilution method. It counts as functional. For orientation: Broth dilution looks for growth in wells or tubes with falling amounts of substance.
Assay [5] deals with Staphylococcus aureus. Nature of the assay: Antibacterial activity against Staphylococcus aureus No. 6538 P assessed as growth inhibition by broth microdilution method. It counts as functional.
Assay [6] concerns Candida albicans. In words: Antifungal activity against mixed infection of Candida albicans infected in mouse assessed as noninfected animals at 2% formulation administered vaginally bid for 4 days measured 6 hrs post last dose relative to placebo. It counts as functional.
In another assay the test system is Cryptococcus neoformans. Nature of the assay: Antifungal activity against Cryptococcus neoformans assessed as growth inhibition by broth dilution method. The format is functional.
Another assay concerns Streptococcus pyogenes. Nature of the assay: Antibacterial activity against Streptococcus pyogenes No. 8668 assessed as growth inhibition by broth microdilution method. The format is functional.
The subject of assay [7] is Candida albicans. In words: Antifungal activity against mixed infection of Candida albicans infected in mouse assessed as noninfected animals at 0.2% formulation administered vaginally bid for 4 days measured 6 hrs post last dose relative to placebo. It counts as functional.
Assay [8] deals with Candida albicans. Nature of the assay: Antifungal activity against Candida albicans infected in mouse assessed as noninfected animals at 0.5% formulation in neat PEG 400 solution administered vaginally bid for 4 days measured 6 hrs post last dose relative to placebo. The format is functional.
Assay [9] concerns Trichophyton mentagrophytes. Nature of the assay: Antifungal activity against Trichophyton mentagrophytes infected in guinea pig assessed as noninfected animals at 0.5% formulation in steryl alcohol, cetyl alcohol, Span 60, Tween 60, propylene glycol, mineral oil, and water administered qd for 5 days measured on day 14. The format is functional.
Assay [10] deals with Candida albicans. In words: Antifungal activity against mixed infection of Candida albicans infected in mouse assessed as noninfected animals at 0.5% formulation administered vaginally bid for 4 days measured on day 7 relative to placebo. The format is functional.
The subject of assay [11] is Candida albicans. Nature of the assay: Antifungal activity against mixed infection of Candida albicans infected in mouse assessed as noninfected animals at 0.5% formulation administered vaginally bid for 4 days measured 6 hrs post last dose relative to placebo. The format is functional.
Assay [12] deals with Candida albicans. In words: Antifungal activity against Candida albicans ATCC 14053 assessed as growth inhibition by broth dilution method. It counts as functional.
Assay [13] concerns Candida albicans. Nature of the assay: Antifungal activity against mixed infection of Candida albicans infected in mouse assessed as noninfected animals at 1% formulation administered vaginally bid for 4 days measured 6 hrs post last dose relative to placebo. The format is functional.
The subject of the next assay is Enterococcus faecalis. In words: Antibacterial activity against Streptococcus faecalis No. 8043-2 assessed as growth inhibition by broth microdilution method. It counts as functional.
Assay [14] has as its system Trichophyton mentagrophytes. In words: Antifungal activity against Trichophyton mentagrophytes infected in guinea pig assessed as noninfected animals at 0.5% formulation in steryl alcohol, cetyl alcohol, Span 60, Tween 60, propylene glycol, mineral oil, and water administered qd for 5 days measured on day 7. It counts as functional.
Assay [15] concerns Candida albicans. In words: Antifungal activity against Candida albicans infected in mouse assessed as noninfected animals at 0.5% formulation in neat PEG 400 solution administered vaginally bid for 4 days measured on day 7 relative to placebo. It counts as functional.
In assay [16] the test system is Candida albicans. In words: Antifungal activity against Candida albicans infected in mouse assessed as noninfected animals at 2% formulation in modified PEG 400 solution administered vaginally bid for 4 days measured on day 7 relative to placebo. The format is functional, organism-based.
The test system of assay [17] is Trichophyton mentagrophytes. Nature of the assay: Antifungal activity against Trichophyton mentagrophytes assessed as growth inhibition by agar dilution method. It counts as functional.
The subject of the next assay is Nannizzia gypsea. Nature of the assay: Antifungal activity against Microsporum gypseum assessed as growth inhibition by agar dilution method. The format is functional.
Assay [18] has as its system Candida albicans. Nature of the assay: Antifungal activity against Candida albicans ATCC 10231 assessed as growth inhibition by broth dilution method. It counts as functional.
Assay [19] has as its system Candida albicans. Nature of the assay: Antifungal activity against Candida albicans infected in mouse assessed as noninfected animals at 2% formulation in neat PEG 400 solution administered vaginally bid for 4 days measured 6 hrs post last dose relative to placebo. It counts as functional.
Assay [20] deals with Candida albicans. Nature of the assay: Antifungal activity against mixed infection of Candida albicans infected in mouse assessed as noninfected animals at 2% formulation administered vaginally bid for 4 days measured on day 7 relative to placebo. The format is functional.
Assay [21] deals with Candida albicans. In words: Antifungal activity against mixed infection of Candida albicans infected in mouse assessed as noninfected animals at 2% commercial cream formulation administered vaginally bid for 4 days measured on day 7 relative to placebo. It counts as functional.
In another assay the test system is Trichophyton rubrum. In words: Antifungal activity against Trichophyton rubrum assessed as growth inhibition by agar dilution method. It counts as functional.
Assay [22] deals with Candida albicans. Nature of the assay: Antifungal activity against Candida albicans infected in mouse assessed as noninfected animals at 1% formulation in neat PEG 400 solution administered vaginally bid for 4 days measured on day 7 relative to placebo. The format is functional.
The subject of assay [23] is Trichophyton mentagrophytes. Nature of the assay: Antifungal activity against Trichophyton mentagrophytes infected in guinea pig assessed as noninfected animals at 0.5% formulation in steryl alcohol, cetyl alcohol, Span 60, Tween 60, propylene glycol, mineral oil, and water administered qd for 5 days measured on day 4. The format is functional.
A further assay relates to Microsporum canis. Nature of the assay: Antifungal activity against Microsporum canis assessed as growth inhibition by agar dilution method. The format is functional.
In assay [24] the test system is Candida albicans. Nature of the assay: Antifungal activity against mixed infection of Candida albicans infected in mouse assessed as noninfected animals at 2% commercial cream formulation administered vaginally bid for 4 days measured 6 hrs post last dose relative to placebo. The format is functional.
Assay [25] relates to Candida albicans. In words: Antifungal activity against Candida albicans infected in mouse assessed as noninfected animals at 4% formulation in neat PEG 400 solution administered vaginally bid for 4 days measured on day 7 relative to placebo. It counts as functional.
Assay [26] relates to Candida albicans. Nature of the assay: Antifungal activity against Candida albicans infected in mouse assessed as noninfected animals at 2% formulation in neat PEG 400 solution administered vaginally bid for 4 days measured on day 7 relative to placebo. It counts as functional.
Another assay deals with Epidermophyton floccosum. In words: Antifungal activity against Epidermophyton floccosum assessed as growth inhibition by agar dilution method. It counts as functional.
Assay [27] deals with Candida albicans. In words: Antifungal activity against mixed infection of Candida albicans infected in mouse assessed as noninfected animals at 1% formulation administered vaginally bid for 4 days measured on day 7 relative to placebo. It counts as functional.
Assay [28] deals with Candida albicans. In words: Antifungal activity against Candida albicans infected in mouse assessed as noninfected animals at 4% formulation in neat PEG 400 solution administered vaginally bid for 4 days measured 6 hrs post last dose relative to placebo. The format is functional.

SMILES strings stand for the structures. Active and inactive are the calls of the source. No cut-off for these calls is given here. Bounds are passed on as bounds.

Turning to `Clc1ccc(COC(Cn2ccnc2)c2ccc(Cl)cc2Cl)c(Cl)c1` (stereo not drawn) [MICONAZOLE], the GI in the assay with Trichophyton tonsurans was 0.5 µg/mL; in assay [3], 0.5 µg/mL; in the assay with Staphylococcus aureus [4], 12.5 µg/mL; in the assay on Staphylococcus aureus [5], 6.25 µg/mL; with Cryptococcus neoformans it was “<=0.3 ug ml-1”; in the assay on Streptococcus pyogenes, “<=0.0008 ug ml-1”. In addition, the GI is 30 µg/mL with Candida albicans [12]; 3.12 µg/mL in the assay with Enterococcus faecalis; 0.5 µg/mL in [17]; 0.05 µg/mL in the assay with Nannizzia gypsea; 30 µg/mL with Candida albicans [18]; 0.5 µg/mL in the assay with Trichophyton rubrum. The GI was 0.5 µg/mL in the assay with Microsporum canis and 5 µg/mL in the assay on Epidermophyton floccosum. Besides, the Activity in the assay with Candida albicans [1] was determined as 20%; in the assay on Candida albicans [2], 60%; in the assay with Candida albicans [6] it was 10%; in the assay on Candida albicans [7], 15%; in the assay on Candida albicans [8], 30%; in [9], 10%. Further, the Activity was 11% in the assay on Candida albicans [10]; 20% in the assay with Candida albicans [11]; 20% with Candida albicans [13]; 80% in assay [14]; 25% in the assay with Candida albicans [15]; 50% with Candida albicans [19]. Moreover, the Activity in the assay with Candida albicans [20] came to 15%; with Candida albicans [21], 25%; with Candida albicans [22], 25%; in assay [23], 70%; in the assay with Candida albicans [24] it was 33%; with Candida albicans [25], 70%. Moreover, the Activity was determined as 37% in the assay on Candida albicans [26], 25% with Candida albicans [27] and 75% with Candida albicans [28]. For the same compound, the result with Candida albicans [16] was inactive.

Regarding `Clc1ccccc1C(c1ccccc1)(c1ccccc1)n1ccnc1` [CLOTRIMAZOLE], the Activity in the assay with Candida albicans [2] is reported as 85%; with Candida albicans [22], 55%.
